Assay results reported in patent US20260130894A1, “COMPOSITION COMPRISING ISOQUINOLINE DERIVATIVE AS ACTIVE INGREDIENT FOR PREVENTION OR TREATMENT OF PARKINSON'S DISEASE” (ALTMEDICAL CO., LTD., priority 2022, published 2026).

Assays:
[1] = test system: BEAS-2B cell line; experiment: Autophagy activity in BEAS-2B cells expressing Keima (confocal microscope); format: cell-based, human; conditions: 15 μM, 18 hours (FIG. 4B)
Description: It was confirmed whether CD1-012 synthesized in Example 1 specifically increases only mitophagy activity. To this end, the BEAS-2B cell line expressing mt-Keima was treated with CD1-012 (15 μM) or Comparative Example 1 (CCCP, 10 μM) for 18 hours, and mitophagy activity was analyzed using a confocal microscope. Additionally, to measure autophagy activity, the BEAS-2B cell line expressing Keima fluorescent protein was incubated in Hanks' balanced salt solution (HBSS) for 3 hours to induce a starvation condition (starv.), and the results were compared with samples treated with CD1-012 (15 μM) for 18 hours using a confocal microscope.

[2] = test system: mitochondria from the substantia nigra of the mice; experiment: Mitochondrial function in substantia nigra of MPTP mouse model (TMRM, ATP production); format: in vivo
Description: Subsequently, it was confirmed that the compound CD1-012 of the present invention has an effect of improving mitochondrial dysfunction using an animal model of Parkinson's disease. To this end, after separating mitochondria from the substantia nigra of the mice undergoing the behavioral experiment in Example 4, the membrane potential of mitochondria was analyzed through TMRM (100 nM, 37° C., 30 min) fluorescent staining, and the mitochondrial function was analyzed by measuring ATP production (analyzed for 5 mice per group).

[3] = test system: BEAS-2B cell line, in which PINK1 was knocked down; experiment: Mitophagy activity in PINK1 knockdown (shPINK1) BEAS-2B cells (FACS); format: cell-based, human
Description: In this example, it was confirmed whether the mitophagy activation function of the isoquinoline derivative according to the present invention is dependent on the PINK1-Parkin pathway. […]
In the following example, it was confirmed whether the novel isoquinoline derivative according to the present invention has a therapeutic effect of preventing or improving Parkinson's disease. Most of all, it was confirmed whether the treatment with the isoquinoline derivative improves mitochondrial dysfunction of a Parkinson's disease cell model. To this end, first, the induction of mitophagy by CD1-012 was verified. […] In addition, to analyze whether the mitophagy-promoting activity of CD1-012 is dependent on PINK1, PINK1 expression was inhibited (using shPNIK1) in BEAS-2B cells, which is a human normal lung cell line expressing a mitochondrial fluorescent protein, and mitophagy activity was analyzed by flow cytometry (FACS).

[4] = test system: human nerve cell line H-SY5Y; experiment: Mitochondrial function in sporadic Parkinson's disease cell model (MPP+ or 6-OHDA); format: cell-based; conditions: CD1-012 20 μM one day
Description: Sporadic Parkinson's disease has progressive motor/non-motor dysfunction symptoms, and most patients with Parkinson's disease have this disease. In this example, the therapeutic effect of CD1-012 on sporadic Parkinson's disease was confirmed. To this end, after a sporadic Parkinson's disease cell model was manufactured by treating a human nerve cell line H-SY5Y with the neurotoxins MPP+(62.5 μM) and 6-OHDA (40 μM) for two days, the cell model was treated with CD1-012 (20 μM) for one day and then the membrane potential and ATP production capacity of mitochondria were analyzed after two days.

[5] = test system: dopaminergic neurons in the substantia nigra; experiment: Number of dopaminergic neurons in substantia nigra of MPTP mouse model (TH immunochemical staining); format: in vivo; conditions: MPTP mice administered CD1-012, TH staining (FIGS. 13A and 13B)
Description: Subsequently, it was confirmed whether CD1-012 administration can inhibit dopaminergic neuron death in the substantia nigra of the animal model of Parkinson's disease. To this end, the number of dopaminergic neurons was measured by performing TH immunochemical staining on the substantia nigra of the mice undergoing the behavioral experiment in Example 4.

[6] = test system: mitochondrial reactive oxygen species (ROS); experiment: Mitochondrial reactive oxygen species, MitoSOX assay; format: cell-based; conditions: CD1-012 10 μM or 15 μM, CCCP 10 μM, 24 hours (FIG. 6)
Description: It was confirmed whether the isoquinoline derivative according to the present invention induces mitochondrial dysfunction, similar to CCCP. To this end, the CD1-012 (10 μM or 15 μM) and CCCP (10 μM) were treated for 24 hours, and the mitochondrial membrane potential and mitochondrial reactive oxygen species (ROS) levels in each sample were analyzed. Mitochondrial membrane potential was analyzed using the TMRM (tetramethylrhodamine methyl ester) assay, and mitochondrial ROS levels were analyzed using the MitoSOX assay.

[7] = test system: HeLa-Parkin cell line; experiment: Mitophagy activity in HeLa-Parkin cells (FACS); format: cell-based, human; conditions: FACS (FIG. 2B)
Description: It was confirmed whether CD1-012 synthesized in Example 1 increases mitophagy activity in various cell lines. To this end, CD1-012 and Comparative Example 1 (CCCP) were treated in the SH-SY5Y cell line, a human neuroblastoma cell line expressing mt-Keima fluorescent protein, and in the HeLa-Parkin cell line, a HeLa cervical cancer cell line expressing Parkin (E3 ligase). Following this treatment, the mitophagy activity of each sample was analyzed using flow cytometry (FACS), and the results are shown in FIGS. 2A to 2B.

For Oc1cc2c(cc1O)-c1cc3ccc(O)c(O)c3c[n+]1CC2 [CD1-012, 2,3,9,10-tetrahydroxy-5,6-dihydroisoquinolino[3,2-a]isoquinolin-7-ium bromide], the “autophagy activity compared to the untreated control group” value [1] was “no significant difference in autophagy activity”, the “ATP synthesis capacity of mitochondria in substantia nigra” value ([2]; MPTP mice coadministered CD1-012 (FIG. 12B)) was “restoration” and the “membrane potential of mitochondria in substantia nigra” value ([2]; MPTP mice coadministered CD1-012, TMRM (FIG. 12A)) was “restoration”. For the same compound, the “mitophagy-promoting activity compared with CCCP (10 μM)” value ([3]; 20 μM, BEAS-2B, FACS (FIG. 8B)) was “mitophagy-promoting activity at a level similar to that of CCCP”, the “mitophagy-promoting activity when PINK1 gene expression was inhibited” value ([3]; 20 μM, shPINK1 BEAS-2B, FACS (FIG. 8B)) was “mitophagy-promoting activity was not inhibited” and the “mitophagy activation in PINK1 knockdown cell line (shPINK1) compared to control cell line (shNT)” value ([3]; CCCP 10 μM, CD1-012 15 μM, 18 hours (FIG. 7)) was “did not show a significant difference”. The mitochondrial membrane potential ([4]; 6-OHDA (40 μM) model, analyzed after two days (FIG. 10B)) was “restored”, the “ATP synthesis capacity of mitochondria” value ([4]; 6-OHDA (40 μM) model, analyzed after two days (FIG. 10D)) was “significantly restored” and the mitochondrial membrane potential ([4]; MPP+ (62.5 μM) model, analyzed after two days (FIG. 10A)) was “restored”. The “ATP synthesis capacity of mitochondria” value ([4]; MPP+ (62.5 μM) model, analyzed after two days (FIG. 10C)) was “significantly restored”, the “number of dopaminergic neurons in substantia nigra” value [5] was “restored to a level similar to the control” and the “mitochondrial ROS levels” value [6] was “no increase in mitochondrial ROS was detected”. For the same compound, the “mitophagy activity compared to the control group (Con)” value [7] was “significantly increased mitophagy activity”.
